The text below walks through data of patent US10265278B2, “Pharmaceutical compositions and methods utilizing a D-amino acid” (priority 2008, dated 2019).

Like-named read-outs stand apart in the source and are kept apart here.

Data set [1] has as its system rat kidney. The note with it: cited from earlier work; for Effect on nephrotoxic effects of orally administered DL-serine: DL-serine 100 mg oral, test compound subcutaneous or intramuscular, rats (Wachstein); for Protective effect against D-serine nephrotoxicity: compound injected prior to D-serine (Kaltenbach et al 1982).
The subject of data set [2] is rat kidney. To be noted: cited from earlier work.
For data set [3], the system named is Sprague Dawley rats. In words: Histopathological examination of kidney at necropsy (tubular nephrosis grade). The data set is classed as in vivo. The note with it: histopathology at necropsy; oral gavage up to 400 mg/kg. The protocol:
(§1) Rats were divided into 5 separate groups of four male and four female animals each.
(§2) In addition, a control group received only standard diet. […] Effects of various doses were investigated in a sequential manner starting with 50 mg/kg. Dose level was doubled every three days up to four doses (50 mg, 100 mg, 200 mg & 400 mg).
(§3) Nephrotoxicity was assessed in two ways: first, by creatanine levels and second by histophathology at necropsy.

Data set [4] relates to Sprague Dawley rats. Nature of the data set: Creatanine levels in rats during oral D-serine treatment with or without glutathione precursors. The data set is classed as in vivo. The protocol: as §1, §2, §3
Data set [5] has as its system rat kidney. The note with it: rats (Dickey et al 2007), cited from earlier work.
The conditions of data set [6]: oral NAC vs. hydration alone; cited from earlier work.

Take `CC(N)C(=O)O` (racemic) [DL-alpha-alanine]: the “Effect on nephrotoxic effects of orally administered DL-serine” value (shortened to “Effect on nephrotoxic effects”) with rat kidney [1] is recorded as “relatively ineffective”.

For `CC(N)(CO)C(=O)O` (racemic) [DL-alpha-methylserine], the “Protective effect against D-serine nephrotoxicity” value (“Protective effect” for short) in the data set with rat kidney [1] is “significant protective effects”.

`CSCCC(N)C(=O)O` (racemic) [DL-methionine]: in the data set on rat kidney [1], the “Effect on nephrotoxic effects” value is recorded as “blocked”.

As to `NC(CO)C(=O)O` (racemic) [DL-serine], the Renal injury induced result with rat kidney [2] (100 mg DL-serine, rats, stock diet or diet deficient in B vitamins) is listed as “acute renal necrosis”.

As for `C[C@@H](O)[C@H](N)C(=O)O` (racemic) [DL-threonine], the “Effect on nephrotoxic effects” value with rat kidney [1] is reported as “partial or full prevention of toxicity”.

With `CC(C)C(N)C(=O)O` (racemic) [DL-valine], the “Effect on nephrotoxic effects” value in the data set with rat kidney [1] is listed as “relatively ineffective”.

Take `CC(C)C(O)C(N)C(=O)O` (racemic) [beta-hydroxy-DL-leucine]: in the data set on rat kidney [1], the “Protective effect” value is “significant protective effects”.

For `OCC(S)CS` (stereo not shown) [2,3 dithiopropanol], in the data set on rat kidney [1], the “Effect on nephrotoxic effects” value is on record as “relatively ineffective”.

In the case of `C[C@@H](N)C(=O)O` [D-alanine], the “Protective effect” value with rat kidney [1] was “significant protective effects”.

`O=C[C@H](O)[C@@H](O)[C@H](O)[C@H](O)CO` [D-glucose]: in the data set on rat kidney [1], the “Effect on nephrotoxic effects” value is given as “relatively ineffective”.

For the compound `N[C@H](CCO)C(=O)O` [D-homoserine], the “Protective effect” value in the data set with rat kidney [1] was “significant protective effects”.

Take `C[C@H](O)[C@@H](N)C(=O)O` [D-threonine]: the “Protective effect” value in the data set with rat kidney [1] is given as “significant protective effects”.

As for `N[C@H](CO)C(=O)O` [Group A, D-serine], the “Nephrosis level (mean severity grade of tubular nephrosis)” value in the data set with Sprague Dawley rats [3] was found to be 1.91. Further, in the data set with rat kidney [2] (rats lacking DAAO (Maekawa et al 2005)), the “Nephrotoxicity in rats lacking DAAO” value is reported as “not nephrotoxic”. For the same compound, the “Smallest dose consistently producing renal lesions” value in the data set with rat kidney [2] (rats) was 5 mg per 100 g. In addition, the “Increase in creatanine levels during treatment” value in the data set with Sprague Dawley rats [4] (post vs. pre, in words) is recorded as “significant increase”. Further, the “Creatanine level, Change mean” value in the data set with Sprague Dawley rats [4] (post- minus pre-treatment) came to 0.12. Moreover, in the data set with Sprague Dawley rats [4] (post-treatment, oral gavage, doses escalated 50, 100, 200, 400 mg/kg), the “Creatanine level, Post-treatment mean” value was 0.77. Moreover, the “Creatanine level, Pre-treatment Mean” value with Sprague Dawley rats [4] (pre-treatment (baseline), rats, oral gavage) is reported as 0.65.

`N=C(N)NCCC[C@H](N)C(=O)O` [L-arginine]: in the data set on rat kidney [1], the “Effect on nephrotoxic effects” value is given as “relatively ineffective”.

As to `N[C@@H](Cc1c[nH]cn1)C(=O)O` [L-histidine], the “Effect on nephrotoxic effects” value in the data set on rat kidney [1] was “relatively ineffective”.

Consider `CC(=O)N[C@@H](CS)C(=O)O` [NAC, N-acetylcysteine], for which the “Effect against cisplatin-induced experimental nephrotoxicity” value was “effective” with rat kidney [5] (intravenous NAC) and “not found beneficial effects” in the data set with rat kidney [5] (oral NAC). In addition, the “Blockade of nephrotoxicity due to intravenous contrast” value in data set [6] was “not found benefit over hydration alone”.

Consider `CC(C)(N)C(=O)O` [alpha-aminoisobutryic acid], for which the “Protective effect” value with rat kidney [1] is “significant protective effects”.

For `CCCC(=O)O` [butyric acid], the “Effect on nephrotoxic effects” value in the data set on rat kidney [1] is “relatively ineffective”.

As to `N[C@@H](CCC(=O)N[C@@H](CS)C(=O)NCC(=O)O)C(=O)O` [glutathione], the “Effect on nephrotoxic effects” value with rat kidney [1] is “blocked”. Besides, the “Prevention of D-serine toxicity” value in the data set on rat kidney [1] (intrarenal injection, equimolar with D-serine (Krug et al 2007)) is “toxicity can be prevented”.

For the compound `NCC(=O)O` [glycine], the “Effect on nephrotoxic effects” value with rat kidney [1] is “partial or full prevention of toxicity”.

With `CC(=O)[O-].[Na+]` [sodium acetate], the “Effect on nephrotoxic effects” value in the data set on rat kidney [1] is on record as “relatively ineffective”.

Consider `O=C([O-])c1ccccc1.[Na+]` [sodium benzoate], for which, in the data set with rat kidney [1] (intraperitoneal, large doses (Williams and Lock 2005)), the “Prevention of D-serine toxicity” value is listed as “toxicity can be prevented”.

In the case of `[Cl-].[Na+]` [sodium chloride], the “Effect on nephrotoxic effects” value in the data set with rat kidney [1] is on record as “relatively ineffective”.

Regarding `CC(O)C(=O)[O-].[Na+]` (stereo not shown) [sodium lactate], the “Effect on nephrotoxic effects” value with rat kidney [1] is recorded as “partial or full prevention of toxicity”.

With `O=C([O-])CS.[Na+]` [sodium thioglycollate], the “Effect on nephrotoxic effects” value in the data set with rat kidney [1] was “relatively ineffective”.
